Data reported in ChEMBL document CHEMBL3137667, “[Drug-induced liver injury; fourteenth updated edition of the bibliographic database of liver injuries and related drugs]” (Gastroenterol Clin Biol, 2004).

Assays:
[1] = human
[2] = Highest frequency of moderate liver toxicity observed during clinical trials, expressed as a percentage. [column '% BIOL' in source]; conditions: human
[3] = Times to onset, minimal and maximal, observed in the indexed observations. [column 'DELAI' in source]; conditions: human
[4] = human; remark: listed apart in the source
[5] = human, serum
[6] = human; remark: listed apart in the source
[7] = human; remark: listed apart in the source
[8] = human, serum; remark: listed apart in the source
[9] = human, serum, 4383 h
[10] = Presence of at least one case with successful reintroduction. [column 'REINT' in source]; conditions: human
[11] = Comments (NB not yet translated). [column 'COMMENTAIRES' in source]; conditions: human
[12] = Proposed mechanism(s) of liver damage. [column 'MEC' in source]; conditions: human
[13] = human; remark: listed apart in the source
[14] = human; remark: listed apart in the source
[15] = human; remark: listed apart in the source
[16] = Highest frequency of acute liver toxicity observed during clinical trials, expressed as a percentage. [column '% AIGUE' in source]; conditions: human
[17] = human; remark: listed apart in the source
[18] = human; remark: listed apart in the source
[19] = human; remark: listed apart in the source
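Wherever Hepatotoxicity (association with vascular disease) is given: count of indexed literature references reporting vascular liver injury in humans, e.g. peliosis hepatitis, hepatic veno-occlusive disease or Budd-Chiari syndrome.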
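Wherever Hepatotoxicity (benign tumour) is given: value is a count of indexed literature references citing a benign tumour confirmed by histopathology.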
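Wherever Hepatotoxicity (choleostasis) is given: human cholestatic liver injury, shown by histopathology or by peak ALT or AST elevation over alkaline phosphatase ratio below 2, value counts indexed literature reports.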
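Wherever Hepatotoxicity (chronic liver disease) is given: chronic liver injury confirmed by histopathology or persistently raised serum aminotransferase activity beyond 6 months, value given as the count of indexed literature references.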
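Wherever Hepatotoxicity (cirrhosis) is given: value is a count of indexed literature references reporting cirrhosis confirmed by histopathology.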
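Wherever Hepatotoxicity (cytolytic) is given: human cytolytic liver injury, shown by histopathology or by a ratio above 5 of peak ALT or AST elevation to alkaline phosphatase elevation, value counts indexed references.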
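Wherever Hepatotoxicity (granulomatous hepatitis) is given: value is a count of indexed literature references reporting granulomatous liver disease confirmed by histopathology.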
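Wherever Hepatotoxicity (malignant tumour) is given: malignant tumour confirmed by histopathology, value gives the count of indexed literature references reporting it.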
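Wherever Hepatotoxicity (severe hepatitis) is given: human clinical data: severe hepatitis, meaning potentially life-threatening liver failure or clinically observed cases, the value counts how many indexed literature references report it.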
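Wherever Hepatotoxicity (steatosis) is given: steatosis confirmed by histopathology, value is the count of indexed references.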

| SMILES | Hepatotoxicity (animal toxicity known) [1] | Hepatotoxicity (moderate) [2] | Hepatotoxicity (time to onset) [3] | Hepatotoxicity (choleostasis) [4] | Hepatotoxicity (acute) [5] | Hepatotoxicity (association with vascular disease) [6] | Hepatotoxicity (benign tumour) [7] | Hepatotoxicity (moderate) [8] | Hepatotoxicity (chronic liver disease) [9] | Hepatotoxicity (successful reintroduction) [10] | Hepatotoxicity (comment) [11] | Hepatotoxicity (mechanism) [12] | Hepatotoxicity (severe hepatitis) [13] | Hepatotoxicity (cirrhosis) [14] | Hepatotoxicity (granulomatous hepatitis) [15] | Hepatotoxicity (acute) [16] | Hepatotoxicity (steatosis) [17] | Hepatotoxicity (malignant tumour) [18] | Hepatotoxicity (cytolytic) [19] | other results |
| --- | --- | --- | --- | --- | --- | --- | --- | --- | --- | --- | --- | --- | --- | --- | --- | --- | --- | --- | --- | --- |
| CC(C)NNC(=O)c1ccncc1 [IPRONIAZID] | yes | 30% | 3 days - 1 year | 3 | 30 | 0 | 0 | 2 | 3 | yes | AC_ANTI-M6 RC/PHENIPRAZINE | Allergic, Reactive metabolite | 18 | 3 | 0 | 1.4% | 0 | 0 | 28 |  |
| CN(C)c1ccc(O)c2c1C[C@H]1C[C@H]3[C@H](N(C)C)C(O)=C(C(N)=O)C(=O)[C@@]3(O)C(O)=C1C2=O [MINOCYCLINE] | yes | 41.7% | 4 days - 12 years | 2 | 48 | 0 | 0 | 17 | 11 | yes | AC_ANTI-N/-ADN/-pNCA REACTIVATION_VH-6 | Allergic, Dose-dependant, Toxic Metabolite | 8 | 0 | 1 | 0% | 2 | 0 | 36 |  |
| NC(=O)c1cnccn1 [PYRAZINAMIDE] | yes | 36.4% | 2 hours - 1.2 years | 8 | 51 | 0 | 0 | 21 | 1 | yes | I/OFLOXACINE AC_ANTI-N | Allergic, Dose-dependant | 19 | 0 | 1 | 31.8% | 0 | 0 | 28 |  |
| CO[C@H]1/C=C/O[C@@]2(C)Oc3c(C)c(O)c4c(O)c(c(/C=N/N5CCN(C)CC5)c(O)c4c3C2=O)NC(=O)/C(C)=C\C=C\[C@H](C)[C@H](O)[C@@H](C)[C@@H](O)[C@@H](C)[C@H](OC(C)=O)[C@@H]1C [RIFAMPIN] | yes | 23% | 2 days - 14 months | 19 | 38 | 0 | 0 | 22 | 0 | yes | AC_ANTI-N I/ISONIAZIDE/TROLEANDOMYCINE | Allergic, Dose-dependant | 6 | 0 | 0 | 7.3% | 0 | 0 | 14 |  |
| FC(F)(F)C(Cl)Br (configuration not stated) [HALOTHANE] | yes | 33% | 1 day - 3 months | 7 | 99 | 0 | 0 | 24 | 3 | yes | AC_ANTI-MFR1/-TFA RC/METHOXYFLURANE/ENFLURANE | Allergic, Toxic Metabolite | 35 | 2 | 2 | 0% | 1 | 0 | 31 |  |
| CO[C@H]1C[C@H](O[C@H]2[C@H](C)[C@@H](O[C@@H]3O[C@H](C)C[C@H](N(C)C)[C@H]3OC(C)=O)[C@@H](C)C[C@@]3(CO3)C(=O)[C@H](C)[C@@H](OC(C)=O)[C@@H](C)[C@@H](C)OC(=O)[C@@H]2C)O[C@@H](C)[C@@H]1OC(C)=O [TROLEANDOMYCIN] | yes | 83.3% | 3 days - 2 weeks | 26 | 27 | 0 | 0 | 15 | 0 | yes | CHOLANGITE I/PILULE/RIFAMPICINE RC/ERYTHROMYCINE | Allergic, Dose-dependant | 0 | 0 | 0 | 4% | 0 | 0 | 2 |  |
| O=C(O)COc1ccc(C(=O)c2cccs2)c(Cl)c1Cl | yes |  | 2 weeks - 1 year | 8 | 18 | 0 | 0 | 9 | 7 | yes | AC_ANTI-MFR2 | Allergic, Reactive metabolite |  | 4 | 0 |  | 1 | 0 | 18 | Hepatotoxicity (moderate) ([2]; Liver): 7%; Hepatotoxicity (severe hepatitis) ([13]; Liver): 9; Hepatotoxicity (acute) ([16]; Liver): 0% |
| COC(=O)Nc1nc2ccc(C(=O)c3ccccc3)cc2[nH]1 [MEBENDAZOLE] | yes | 30% | 2 days - 2 months | 0 | 3 | 0 | 0 | 13 | 0 | yes | AC_ANTI-ML I/CIMETIDINE | Allergic, Dose-dependant | 0 | 0 | 1 | 0% | 0 | 0 | 3 |  |
